One block for each molecule: values may come before it.
Key:
[1] = Reactivity of tetrazines towards trans-cyclooct-4-ene-1-ol (minor isomer), competition experiment; details: reference 3-(5-acetamido-2-pyridyl)-6-(2-pyridyl)-1,2,4,5-tetrazine
Procedure: A competition experiment was performed to determine the reactivity ratio of a specific tetrazine and 3-(5-acetamido-2-pyridyl)-6-(2-pyridyl)-1,2,4,5-tetrazine (that was chosen as the reference tetrazine), in the inverse-electron demand Diels-Alder reaction with trans-cyclooct-4-ene-1-ol (minor isomer).
To acetonitrile (0.100 mL) was added 5 μL of a solution of the specific tetrazine in DMSO (25 mM) and 5 μL, of a solution of the reference tetrazine in DMSO (25 mM). This mixture was diluted with water (0.9 mL), and the absolute amounts of both tetrazines was determined by HPLC-MS/PDA analysis. Subsequently, a solution of trans-cyclooct-4-ene-1-ol (minor isomer) in DMSO (25 μL, 2.5 mM) was slowly added, and the mixture was stirred for 5 min. Again, the absolute amounts of both tetrazines was determined by HPLC-MS/PDA analysis, and conversions for both tetrazines was calculated. From these conversions, the reactivity ratio (R=k2,TCO/k2,Ref) of both tetrazines was calculated using the mathematical procedure from Ingold and Shaw (J. Chem. Soc., 1927, 2918-2926).

[2] = Hydrolytic stability tests of tetrazines; type: physicochemical; details: PBS buffer, 20° C.
[3] = Stability of trans-cyclooctene derivatives; type: physicochemical; details: PBS buffer, 20° C., in the dark, estimation
Procedure: 10 μL of a solution of the specific trans-cyclooctene derivative in dioxane (25 mM) was diluted with PBS buffer (3 mL), and this solution was stored at 20° C. in the dark. The faith of the TCO compound was monitored by HPLC-MS analysis, and an estimation of the half-life time was made.

[4] = Reactivity of trans-cyclooctene derivatives towards bis(2-pyridyl)-1,2,4,5-tetrazine, competition experiment; details: for reactivity towards tetrazines compared to minor isomer of trans-cyclooct-4-ene-1-ol: in words; for Reactivity ratio (R = k2,TCO/k2,Ref): reference trans-cyclooct-4-ene-1-ol (minor isomer)
Procedure: A competition experiment was performed to determine the reactivity ratio of a specific trans-cyclooctene derivative and trans-cyclooct-4-ene-1-ol (minor isomer) (that was chosen as the reference trans-cyclooctene), in the inverse-electron demand Diels-Alder reaction with bis(2-pyridyl)-1,2,4,5-tetrazine.
This mixture was diluted with water (0.45 mL). Subsequently, a solution of bis(2-pyridyl)-1,2,4,5-tetrazine (6.25*10^−8 mol) in a mixture of acetonitrile (0.05 mL) and water (0.45 mL) was slowly added while stirring vigorously. After addition, the mixture was stirred for an additional 5 min. The conversion of both trans-cyclooctene derivatives was determined by HPLC-MS/PDA analysis, and from these conversions, the reactivity ratio (R=k2,TCO/k2,Ref) of the specific trans-cyclooctene derivative was calculated using the mathematical procedure from Ingold and Shaw (J. Chem. Soc., 1927, 2918-2926).

[5] = Reaction of trans-cyclooctene β-lactam derivative with tetrazine; details: equimolar (6.25*10^−8 mol) in water, immediate discoloration, HPLC-MS
Procedure: To a solution of 3-(5-butyramido-2-pyridyl)-6-(2-pyrimidyl)-1,2,4,5-tetrazine (6.25*10^−8 mol) in water (1 mL) was added the trans-cyclooctene β-lactam derivative 25 (6.25*10^−8 mol). […] This was confirmed by HPLC-MS analysis: complete disappearance of the tetrazine signal and formation of the rDA adduct with m/z=504.42 (M+H^+).

[6] = as above; details: equimolar (6.25*10^−8 mol) in water, immediate discoloration, HPLC-MS; remark: listed apart in the source
Procedure: To a solution of (4-(1,2,4,5-tetrazin-3-yl)phenyl)methanamine (6.25*10^−8 mol) in water (1 mL) was added the trans-cyclooctene β-lactam derivative 25 (6.25*10^−8 mol). […] This was confirmed by HPLC-MS analysis: complete disappearance of the tetrazine signal and formation of the rDA adduct with m/z=369.17 (M+H^+).

[7] = as above; details: equimolar (6.25*10^−8 mol) in water, immediate discoloration, HPLC-MS; remark: listed apart in the source
[8] = as above; details: tetrazine suspension in water
Procedure: To a suspension of 3,6-diphenyl-1,2,4,5-tetrazine (6.25*10^−8 mol) in water (1 mL) was added the trans-cyclooctene β-lactam derivative 25 (6.25*10^−8 mol). […] This was confirmed by HPLC-MS analysis: complete disappearance of the tetrazine signal and formation of the rDA adduct with m/z=416.42 (M+H^+).

[9] = as above; details: equimolar (6.25*10^−8 mol) in water, immediate discoloration, HPLC-MS; remark: listed apart in the source
Procedure: To a solution of 3-(5-acetamido-2-pyridyl)-6-(2-pyridyl)-1,2,4,5-tetrazine (6.25*10^−8 mol) in water (1 mL) was added the trans-cyclooctene β-lactam derivative 25 (6.25*10^−8 mol). […] This was confirmed by HPLC-MS analysis: complete disappearance of the tetrazine signal and formation of the rDA adduct with m/z=475.33 (M+H^+).

SMILES: c1cnc(-c2nnc(-c3ncccn3)nn2)nc1
Reactivity ratio (R = k2,TZ/k2,Ref) [1]: 0.12
half-life at 83 µM [2]: 4.5 h

SMILES: O=C(O)C1C2CC/C=C/CCC21 (stereo not drawn) [compound 4, (E-endo)-Bicyclo[6.1.0]non-4-ene-9-carboxylic acid]
half-life at 83 µM [3]: > 72 h
reactivity towards tetrazines compared to minor isomer of trans-cyclooct-4-ene-1-ol [4]: markedly increased reactivity
Reactivity ratio (R = k2,TCO/k2,Ref) ([4]; listed as drawing 42): 13.1

SMILES: O=C(O)C1C2CC/C=C/CCC21 (stereo not drawn) [compound 5, (E-exo)-Bicyclo[6.1.0]non-4-ene-9-carboxylic acid]
reactivity towards tetrazines compared to minor isomer of trans-cyclooct-4-ene-1-ol [4]: markedly increased reactivity
Reactivity ratio (R = k2,TCO/k2,Ref) ([4]; listed as drawing 43): 20.0

Now from value to molecule, other results behind:

half-life at 83 µM [3]: ~24 h
SMILES: O=C(O)CN1C(=O)C2CC/C=C/CCC21 (stereo not shown) [compound 25, (E)-2-(10-oxo-9-azabicyclo[6.2.0]dec-4-en-9-yl)acetic acid]
reaction with tetrazine [5]: quantitative reaction
reaction with tetrazine [6]: quantitative reaction
reaction with tetrazine [7]: quantitative reaction
reaction with tetrazine ([8]; equimolar (6.25*10^−8 mol), HPLC-MS): quantitative reaction
time until pink, turbid mixture became clear and colorless [8]: ≤ 15 min
reaction with tetrazine [9]: quantitative reaction
reactivity towards tetrazines compared to minor isomer of trans-cyclooct-4-ene-1-ol [4]: markedly increased reactivity
Reactivity ratio (R = k2,TCO/k2,Ref) [4]: 5.4

half-life at 83 µM [3]: > 72 h
SMILES: O=C1N[C@H]2CC/C=C/CC[C@H]2N1 [compound 40, Cis (E)-3,3a,4,5,9,9a-hexahydro-1H-cycloocta[d]imidazol-2(8H)-one]
reactivity towards tetrazines compared to minor isomer of trans-cyclooct-4-ene-1-ol [4]: markedly increased reactivity
Reactivity ratio (R = k2,TCO/k2,Ref) [4]: 7.3

From US9913921B2, “Pretargeting kit for imaging or therapy comprising a trans-cyclooctene dienophile and a diene” (TAGWORKS PHARMACEUTICALS B.V., priority 2011, dated 2018)
